The target of one test is T1, human EHMT2 913-1193 (Homo sapiens, UniProt Q96KQ7).
T1 sequence (Q96KQ7 913-1193): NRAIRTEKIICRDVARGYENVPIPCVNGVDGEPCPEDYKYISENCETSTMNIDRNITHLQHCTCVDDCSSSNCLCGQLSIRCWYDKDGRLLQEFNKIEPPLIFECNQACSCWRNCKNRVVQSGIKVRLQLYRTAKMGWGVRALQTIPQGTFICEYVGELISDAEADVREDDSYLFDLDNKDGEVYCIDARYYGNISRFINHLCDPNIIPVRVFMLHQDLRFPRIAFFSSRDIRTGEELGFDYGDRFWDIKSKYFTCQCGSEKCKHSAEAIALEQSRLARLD
Briefly: EHMT2 enzyme assay on histone peptide substrate (3H-SAM SPA). Conditions: EHMT2 IC50, recombinant human EHMT2 913-1193, histone peptide substrate.

The target in another test is T2, human EHMT1 982-1266 (Homo sapiens, UniProt Q9H9B1).
T2 sequence (Q9H9B1 982-1266): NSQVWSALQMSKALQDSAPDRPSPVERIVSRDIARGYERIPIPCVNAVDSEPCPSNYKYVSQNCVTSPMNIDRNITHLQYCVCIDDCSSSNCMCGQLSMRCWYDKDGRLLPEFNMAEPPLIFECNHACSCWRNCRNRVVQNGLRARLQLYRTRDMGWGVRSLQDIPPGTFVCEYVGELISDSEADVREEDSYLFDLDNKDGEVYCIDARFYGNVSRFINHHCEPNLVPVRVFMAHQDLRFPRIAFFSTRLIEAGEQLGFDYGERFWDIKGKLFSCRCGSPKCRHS
Briefly: EHMT1 enzyme assay on histone peptide substrate (3H-SAM SPA). Conditions: EHMT1 IC50, recombinant human EHMT1 982-1266, histone peptide substrate.

For orientation: IC50 means the midpoint of a concentration-inhibition curve. As for `CNc1cc(C)nc(Nc2cc3c(c(C4=CCNC(C)CC4)c2F)OCO3)n1` (single isomer, unassigned) [Compound 380], the IC50 on human EHMT2 913-1193 is 500 to 2000 nM; at human EHMT1 982-1266 it was 100 to 500 nM.
In the same order, the values of `CNc1cc(C)nc(Nc2cc3c(c(C4=CCNC(C)CC4)c2F)OCCO3)n1` (single isomer, unassigned) [Compound 163-a] are > 2000 nM and 500 to 2000 nM.
The matching figures for `CNc1cc(C)nc(Nc2cc3c(c(C4=CCNC(C)CC4)c2Cl)OCO3)n1` (single isomer, unassigned) [Compound 356]: < 100 nM and < 100 nM.
In the case of `CNc1cc(C)nc(Nc2cc3c(c([C@H]4CC[C@H](N)CC4)c2)OCCO3)n1` [Compound 337], the IC50 on human EHMT2 913-1193 was > 2000 nM; at human EHMT1 982-1266 it was 100 to 500 nM.
In the same order, the values of `CNc1cc(C)nc(Nc2cc3c(c(C4=CCNCC(OC)C4)c2F)OCC3)n1` (single isomer, unassigned) [Compound 366] are 500 to 2000 nM and 100 to 500 nM.
In the same order, the values of `CNc1cc(C)nc(Nc2cc3c(c(C4=CCN(C)CC(O)C4)c2C)OCCC3)n1` (single isomer, unassigned) [Compound 419] are > 2000 nM and 500 to 2000 nM.
The matching figures for `CNc1cc(C)nc(Nc2cc3c(c(C4=CCN(C)CC(O)C4)c2C)OCC3)n1` (single isomer, unassigned) [Compound 379]: < 100 nM and < 100 nM.
Consider `CNc1cc(C)nc(Nc2cc3c(c(C4=CCNC(C)CC4)c2C)OCC3)n1` (single isomer, unassigned) [Compound 383-a], for which the 50% inhibitory concentration (IC50) at human EHMT2 913-1193 and at human EHMT1 982-1266 was 500 to 2000 nM throughout.
For the compound `CNc1cc(C)nc(Nc2cc3c(c(C4=CCNC(CO)CC4)c2F)OCC3)n1` (single isomer, unassigned) [Compound 159-a], the IC50 was > 2000 nM at human EHMT2 913-1193 and 500 to 2000 nM on human EHMT1 982-1266.
The matching figures for `CNc1cc(C)nc(Nc2cc3c(c(C4=CCN(C)CC(O)C4)c2C)OCCC3)n1` (single isomer, unassigned) [Compound 418]: 100 to 500 nM and < 100 nM.
In the case of `CNc1cc(C)nc(Nc2cc3c(c(C4=CCNC(C)CC4)c2F)OCCO3)n1` (single isomer, unassigned) [Compound 163], the IC50 at human EHMT2 913-1193 and at human EHMT1 982-1266 was < 100 nM each time.
Consider `CNc1cc(C)nc(Nc2cc3c(c(C4=CCNCC(F)C4)c2F)OCC3)n1` (single isomer, unassigned) [Compound 168], for which the IC50 on human EHMT2 913-1193 and at human EHMT1 982-1266 was 100 to 500 nM throughout.
Regarding `CNc1cc(C)nc(Nc2cc3c(c(C4=CCNC(C)CC4)c2C)OCCC3)n1` (single isomer, unassigned) [Compound 385-a], the IC50 at human EHMT2 913-1193 and on human EHMT1 982-1266 was > 2000 nM in each case.
With `CNc1cc(C)nc(Nc2cc3c(c(C4=CCNC(C)CC4)c2F)OCCC3)n1` (single isomer, unassigned) [Compound 164], the IC50 on human EHMT2 913-1193 and on human EHMT1 982-1266 was < 100 nM throughout.
For the compound `CNc1cc(C)nc(Nc2cc3c(c(C4=CCNC(C(F)F)CC4)c2F)OCC3)n1` (single isomer, unassigned) [Compound 354-a], the IC50 on human EHMT2 913-1193 and at human EHMT1 982-1266 was > 2000 nM in each case.
As to `CNc1cc(C)nc(Nc2cc3c(c(C4=CCNC(CF)CC4)c2F)OCC3)n1` (single isomer, unassigned) [Compound 371], the IC50 on human EHMT2 913-1193 and on human EHMT1 982-1266 was < 100 nM throughout.
For the compound `CNc1cc(C)nc(Nc2cc3c(c(C4=CCNC(C)CC4)c2Cl)OCO3)n1` (single isomer, unassigned) [Compound 356-a], the figures for the IC50 on human EHMT2 913-1193 and at human EHMT1 982-1266 were > 2000 nM and 500 to 2000 nM, respectively.
The matching figures for `CNc1cc(C)nc(Nc2cc3c(c(C4=CCNC(CF)CC4)c2F)OCC3)n1` (single isomer, unassigned) [Compound 371-a]: > 2000 nM and > 2000 nM.
The matching figures for `CNc1cc(C)nc(Nc2cc3c(c(C4=CCNC(C(F)F)CC4)c2F)OCC3)n1` (single isomer, unassigned) [Compound 354]: 100 to 500 nM and < 100 nM.
In the same order, the values of `CNc1cc(C)nc(Nc2cc3c(c(C4=CCNCC(O)C4)c2C)OCCC3)n1` (single isomer, unassigned) [Compound 360] are 500 to 2000 nM and 100 to 500 nM.
On to `CNc1cc(C)nc(Nc2cc3c(c(C4=CCNC(C)CC4)c2F)OCCC3)n1` (single isomer, unassigned) [Compound 162], for which the IC50 at human EHMT2 913-1193 and at human EHMT1 982-1266 was 500 to 2000 nM each time.
Take `CNc1cc(C)nc(Nc2cc3c(c(C4=CCNC(C)CC4)c2C)OCCO3)n1` (single isomer, unassigned) [Compound 368]: the IC50 at human EHMT2 913-1193 and on human EHMT1 982-1266 was 100 to 500 nM throughout.
With `CNc1cc(C)nc(Nc2cc3c(c(C4=CCNC(C)CC4)c2C)OCCC3)n1` (single isomer, unassigned) [Compound 385], the half-inhibitory concentration (IC50) on human EHMT2 913-1193 is 100 to 500 nM; at human EHMT1 982-1266, < 100 nM.
In the same order, the values of `CNc1cc(C)nc(Nc2cc3c(c(C4=CCNC(CO)CC4)c2F)OCC3)n1` (single isomer, unassigned) [Compound 159] are 100 to 500 nM and < 100 nM.
The matching figures for `CNc1cc(C)nc(Nc2cc3c(c(C4=CCC(N)CC4)c2F)OCC3)n1` (single isomer, unassigned) [Compound 436]: > 2000 nM and 500 to 2000 nM.
In the same order, the values of `CNc1cc(C)nc(Nc2cc3c(c(C4=CCNC(C)CC4)c2Cl)OCCO3)n1` (single isomer, unassigned) [Compound 161-a] are > 2000 nM and 500 to 2000 nM.
With `CNc1cc(C)nc(Nc2cc3c(c(C4=CCNC(C)CC4)c2Cl)OCC3)n1` (single isomer, unassigned) [Compound 374-a], the IC50 on human EHMT2 913-1193 and on human EHMT1 982-1266 was 500 to 2000 nM each time.
In the case of `CNc1cc(C)nc(Nc2cc3c(c(C4=CCNC(C)CC4)c2F)OCC3)n1` (single isomer, unassigned) [Compound 184], the IC50 fell in the range of 500 to 2000 nM at human EHMT2 913-1193 and 100 to 500 nM at human EHMT1 982-1266.
In the case of `CNc1cc(C)nc(Nc2cc3c(c(C4=CCNC(C)CC4)c2Cl)OCCC3)n1` (single isomer, unassigned) [Compound 365], the IC50 is 500 to 2000 nM on human EHMT2 913-1193 and 100 to 500 nM at human EHMT1 982-1266.
In the same order, the values of `CNc1cc(C)nc(Nc2cc3c(c(C4=CCNCC(OC)C4)c2F)OCC3)n1` (single isomer, unassigned) [Compound 366-a] are > 2000 nM and 500 to 2000 nM.
The matching figures for `[2H]Cc1cc(NC([2H])([2H])[2H])nc(Nc2cc3c(c(C4=CCNCCC4)c2)OCCO3)n1` [Compound 216]: < 100 nM and < 100 nM.
In the same order, the values of `CNc1cc(C)nc(Nc2cc3c(c(C4=CCNC(C)CC4)c2Cl)OCCO3)n1` (single isomer, unassigned) [Compound 161] are < 100 nM and < 100 nM.
